# Experimental data: patent publication US7727960B2, “C5a receptor antagonists” (Jerini AG, priority 2003, dated 2010)
# Read-outs that look alike come from different tables or passages of the source. Positions of bridges follow the written chain, without caps; N, C: chain ends. Non-standard residues stand in square brackets, D forms with d. Residues, ends and D or L forms follow the SMILES beside them. Phe(4-NH2) = Nc1ccc(C[C@H](N)C(=O)O)cc1; Phe(4-Me) = Cc1ccc(C[C@H](N)C(=O)O)cc1; 2Nal = N[C@@H](Cc1ccc2ccccc2c1)C(=O)O; Bta = N[C@@H](Cc1csc2ccccc12)C(=O)O; 4Pal = N[C@@H](Cc1ccncc1)C(=O)O; 2Thi = N[C@@H](Cc1cccs1)C(=O)O; dCha = N[C@H](CC1CCCCC1)C(=O)O; Pip = O=C(O)[C@@H]1CCCCN1; Orn = NCCC[C@H](N)C(=O)O; Pra = C#CC[C@H](N)C(=O)O; Aze = O=C(O)[C@@H]1CCN1
# Assays:
# human C5aR (CD88) [1] = target: T1, human C5aR (CD88) (Homo sapiens, UniProt P21730); assay: Determination of EC50 values in an enzyme release assay (agonistic activity, no C5a added); assay type: cell-based; details: cellular assay, up to a concentration of at least 1430 nM
# T1 construct: expressed in transfected cells; host or cells: rat basophilic leukemia cells (RBL)
# T1 sequence (P21730 1-350): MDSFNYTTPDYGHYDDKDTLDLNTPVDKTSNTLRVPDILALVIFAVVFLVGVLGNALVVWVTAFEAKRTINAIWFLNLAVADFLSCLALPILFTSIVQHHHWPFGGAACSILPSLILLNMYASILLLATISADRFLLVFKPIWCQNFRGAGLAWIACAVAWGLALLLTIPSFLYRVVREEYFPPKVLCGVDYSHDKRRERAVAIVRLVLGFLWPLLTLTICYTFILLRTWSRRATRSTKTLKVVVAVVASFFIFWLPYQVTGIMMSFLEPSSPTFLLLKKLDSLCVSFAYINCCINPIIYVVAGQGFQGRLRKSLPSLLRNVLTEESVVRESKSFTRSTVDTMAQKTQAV
# Method: The determination of the EC50 value was performed in a way similar to the procedure described in example 11, with the only exception that 30 μl of the compound to be tested were mixed with 75 μl of the cell suspension described in example 11. There was no preincubation or addition of C5a for stimulation of the enzyme release.
# human C5aR (CD88) [2] = target: T1, human C5aR (CD88); assay: Determination of the IC50 value in an enzyme release assay (functional assay, antagonistic activity); assay type: cell-based; details: for IC50-value compared to compound 40 (in words): arginine replaced by hydrophobic substitutions
# [3] = noteworthy = IC50 of less than 200 nM in the functional assay
agonistic activity (in words) (human C5aR (CD88) [1]),inhibitory activity (in words) (human C5aR (CD88) [2]; [3]),Compound,also measured
pure antagonists,,"CC(=O)N[C@@H](Cc1ccccc1)C(=O)N[C@@H](CCCN)C(=O)N1CCC[C@H]1C(=O)N[C@H](CC1CCCCC1)C(=O)N[C@@H](Cc1c[nH]c2ccccc12)C(=O)N[C@@H](Cc1ccccc1)C(N)=O [Compound 51, Ac-Phe-Orn-Pro-cha-Trp-Phe-NH2] (Ac-F[Orn]P[dCha]WF-NH2)",
,noteworthy inhibitory activity,Ac-Phe-[Orn-Pro-cha-Trp-Ppa] (Ac-F[Orn]P[dCha]W[4Pal]; lactam 2-C (inferred)),
,noteworthy inhibitory activity,"CC(=O)N[C@@H](Cc1ccccc1)C(=O)N[C@H]1CCCNC(=O)[C@H](Cc2ccc3ccccc3c2)NC(=O)[C@H](Cc2c[nH]c3ccccc23)NC(=O)[C@@H](CC2CCCCC2)NC(=O)[C@@H]2CCCN2C1=O [Compound 37, Ac-Phe-[Orn-Pro-cha-Trp-2Ni]] (Ac-F[Orn]P[dCha]W[2Nal]; lactam 2-C)",IC50-value compared to compound 40 (in words) (human C5aR (CD88) [2]): without a significant increase of the IC50-value
,noteworthy inhibitory activity,"CC(=O)N[C@@H](Cc1ccccc1)C(=O)N[C@H]1CCCNC(=O)[C@H](Cc2ccc(C)cc2)NC(=O)[C@H](Cc2c[nH]c3ccccc23)NC(=O)[C@@H](CC2CCCCC2)NC(=O)[C@@H]2CCCN2C1=O [Compound 36, Ac-Phe-[Orn-Pro-cha-Trp-Pmf]] (Ac-F[Orn]P[dCha]W[Phe(4-Me)]; lactam 2-C)",IC50-value compared to compound 40 (in words) (human C5aR (CD88) [2]): without a significant increase of the IC50-value
pure antagonists,,"CC(=O)N[C@@H](Cc1ccccc1)C(=O)N[C@@H](CCCNC(=N)N)C(=O)N1CCC[C@H]1C(=O)N[C@H](CC1CCCCC1)C(=O)N[C@@H](Cc1c[nH]c2ccccc12)C(=O)N[C@@H](Cc1ccccc1)C(N)=O [Compound 88, Ac-Phe-Arg-Pro-cha-Trp-Phe-NH2] (Ac-FRP[dCha]WF-NH2)",
,noteworthy inhibitory activity,"CC(=O)N[C@@H](Cc1ccccc1)C(=O)N[C@H]1CCCNC(=O)[C@H](Cc2ccc(N)cc2)NC(=O)[C@H](Cc2c[nH]c3ccccc23)NC(=O)[C@@H](CC2CCCCC2)NC(=O)[C@@H]2CCCN2C1=O [Compound 14, Ac-Phe-[Orn-Pro-cha-Trp-Paf]] (Ac-F[Orn]P[dCha]W[Phe(4-NH2)]; lactam 2-C)",

# Further lines, the compound ahead of its results:
Compound,agonistic activity (in words) (human C5aR (CD88) [1]),inhibitory activity (in words) (human C5aR (CD88) [2]; [3]),also measured
H-Phe-[Orn-Pro-cha-Trp-Phe],pure antagonists,,
"CC(=O)N[C@@H](Cc1cccs1)C(=O)N[C@@H](CCCN)C(=O)N1CCCC[C@H]1C(=O)N[C@H](CC1CCCCC1)C(=O)N[C@@H](Cc1csc2ccccc12)C(=O)N[C@@H](Cc1ccccc1)C(N)=O [Compound 67, Ac-Thi-Orn-Pip-cha-Bta-Phe-NH2] (Ac-[2Thi][Orn][Pip][dCha][Bta]F-NH2)",pure antagonists,,
"CC(=O)N[C@@H](Cc1ccccc1)C(=O)N[C@@H](CCCN)C(=O)N1CCC[C@H]1C(=O)N[C@H](CC1CCCCC1)C(=O)N[C@@H](Cc1csc2ccccc12)C(=O)N[C@@H](Cc1ccccc1)C(N)=O [Compound 62, Ac-Phe-Orn-Pro-cha-Bta-Phe-NH2] (Ac-F[Orn]P[dCha][Bta]F-NH2)",pure antagonists,,
"CC(=O)N[C@@H](Cc1ccccc1)C(=O)N[C@@H](CCCN)C(=O)N1CCCC[C@H]1C(=O)N[C@H](CC1CCCCC1)C(=O)N[C@@H](Cc1c[nH]c2ccccc12)C(=O)N[C@@H](Cc1ccccc1)C(N)=O [Compound 55, Ac-Phe-Orn-Pip-cha-Trp-Phe-NH2] (Ac-F[Orn][Pip][dCha]WF-NH2)",pure antagonists,,
"CC(=O)N[C@@H](Cc1ccccc1)C(=O)N[C@@H](CCCN)C(=O)N1CC[C@H]1C(=O)N[C@H](CC1CCCCC1)C(=O)N[C@@H](Cc1c[nH]c2ccccc12)C(=O)N[C@@H](Cc1ccccc1)C(N)=O [Compound 83, Ac-Phe-Orn-Aze-cha-Trp-Phe-NH2] (Ac-F[Orn][Aze][dCha]WF-NH2)",pure antagonists,,
"C#CC[C@@H]1NC(=O)[C@H](Cc2c[nH]c3ccccc23)NC(=O)[C@@H](CC2CCCCC2)NC(=O)[C@@H]2CCCN2C(=O)[C@@H](NC(=O)[C@H](Cc2ccccc2)NC(C)=O)CCCNC1=O [Compound 35, Ac-Phe-[Orn-Pro-cha-Trp-Eag]] (Ac-F[Orn]P[dCha]W[Pra]; lactam 2-C)",,noteworthy inhibitory activity,IC50-value compared to compound 40 (in words) (human C5aR (CD88) [2]): without a significant increase of the IC50-value
Ac-Phe-[Orn-Hyp(CONHCH2COH(OH)CH2OH)-cha-Trp-Phe],,,inhibitory activity (in words) (human C5aR (CD88) [2]): noteworthy inhibitory activity
